Consider 80 compounds from the METLIN SMRT retention time set (Domingo-Almenara et al. 2019).

The data set in a line: gradient 5% acetonitrile 3 min, to 50% in 2 min, to 85% in 15 min, held 3 min, 100 µL/min. The note with it: column: Zorbax Extend-C18 2.1 x 50 mm; eluents: water / acetonitrile, 0.1% formic acid. A digest of the protocol: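 The mobile phases were water and acetonitrile, each with 0.1% formic acid, pumped at 100 μL/min through a Zorbax Extend-C18 column (2.1 × 50 mm, 1.8 μm). Pure standards were injected as mixtures of ~100 molecules and detected by a quadrupole time-of-flight mass spectrometer in positive and negative ionization mode. Retention time came from computationally picked adduct peaks, each inspected by hand.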
As to `COc1ccc(C2Cn3nnc(-c4nc(-c5ccc(C)c(C)c5)no4)c3CO2)cc1` (stereo not given), the RP-LC retention time was 1270 s. With `O=c1c2nnc3c(-c4ccccc4)cnn3c2ccn1CCc1c[nH]c2ccccc12` the figure was 917 s. With `COc1ccc(C2CCCN2C(=O)c2cccs2)cc1` (stereo not given) the figure was 888 s; with `O=C(NCCCN1CCOCC1)C1=C2CCCN2c2ccc(F)cc2S1(=O)=O`, 576 s. With `O=C(NCc1csc(C2CCCN(C(=O)c3ccc(F)cc3F)C2)n1)C1CCC1` (stereo not given) the figure was 699 s. Regarding `COC(=O)C1=C(C)NC2=C(C(=O)CC(C)(C)C2)C1c1cc(OC)c(OC)c(OC)c1` (stereo not given), the RP-LC retention time was determined as 684 s. `CCOc1ccccc1C(=O)NCc1nc(C)no1` displayed an RP-LC retention time of 684 s.

Consider `COc1ccc(-c2cn3c(CC(=O)Nc4cc(Cl)ccc4OC)csc3n2)cc1`, for which the RP-LC retention time was found to be 847 s. Compound `O=C(C1CCN(c2cncnc2N2CCOCC2)CC1)N1CCOCC1` showed an RP-LC retention time of 556 s.

Compound `Cc1ccccc1-n1ccn(Cc2nc(-c3ccc(Cl)c(F)c3)no2)c(=O)c1=O` came in with an RP-LC retention time of 679 s. The compound `Cc1ccc(NS(=O)(=O)c2cc(-c3[nH]ncc3C(=O)N3CCCC3)oc2C)c(F)c1` registered an RP-LC retention time of 738 s. The compound `CCc1ccc(CNC(=O)c2cc(-c3ccncc3)cn2C)cc1` returned an RP-LC retention time of 669 s. Next, `CCc1nc(-c2csc(S(=O)(=O)N3CCCC(C(=O)Nc4ccc(C(C)C)cc4)C3)c2)no1` (stereo not given): 1210 s; `COc1ccc(CC(=O)NC2CCN(c3nnc4ccccn34)CC2)cc1`: 626 s.

Compound `Fc1ccc(N2CCN(Cc3nc(-c4ccccc4)no3)CC2)cc1` returned an RP-LC retention time of 964 s. With `O=C(Nc1ccc(Cl)c(C(F)(F)F)c1)C1CCN(C(=O)C2Sc3ccccc3NC2=O)CC1` (stereo not given) the figure was 948 s; with `Cn1nnc2cc(C(=O)N3CCCCC3)ccc21`, 738 s; with `O=C([C@@H]1C[C@H](F)CN1C(=O)c1ccc(Cl)cc1)N1CCCCC1`, 724 s. Next, `Cc1c(C(=O)N2CCN(S(C)(=O)=O)CC2)nnn1-c1nc2c(s1)CCCC2`: 798 s; `O=C(NCc1cccc(F)c1)c1cc2n(n1)CCCC2`: 782 s; `CCOC(=O)c1nc(NCCc2ccc(OCC)cc2)c2ccccc2n1`: 836 s.

In turn, `CCC(C)NC(=O)C1CCCN(c2ncccc2-c2noc(C3CCC3)n2)C1` (stereo not given) showed an RP-LC retention time of 930 s. With `CCS(=O)(=O)c1nc2ccc(NS(=O)(=O)c3ccccc3Cl)cc2s1` the figure was 858 s; with `COc1ccc(OC)c(NC(=O)c2nc(C)oc2C)c1`, 935 s. With `COc1ccccc1-c1nc(Cn2nnc(-c3nc(-c4cccc(F)c4)no3)c2C)c(C)o1` the figure was 1130 s; with `Cc1cc(C(=O)NCCCN2CCOCC2)nc2cc(-c3ccccn3)nn12`, 630 s; with `CN(CCNC(=O)c1ccc2c(c1)NC(=O)C1CCCCN21)Cc1ccccc1` (stereo not given), 630 s. As to `COc1ccc(CC(=O)Nc2c(C(=O)N3CCN(c4ccccn4)CC3)oc3ccccc23)cc1`, the RP-LC retention time was 675 s. `Cc1ccc(NC(=O)C2CCCN(c3nnc(C)c4c(C)n(-c5ccccc5)nc34)C2)cc1C` (stereo not given): the RP-LC retention time amounted to 820 s. With `O=C(CCc1nc(-c2ccc(N3CCCC3)cc2)no1)NCCCN1CCOCC1` the figure was 655 s; with `O=C1CCCN1Cc1noc(-c2ccccc2)n1`, 731 s; with `CCCN1C(=O)COc2ccc(-c3noc(-c4ccccc4Br)n3)cc21`, 1280 s. `O=C(NCCCN1CCOCC1)C1c2ccccc2C(=O)N(C2CCCC2)C1c1cccs1` (stereo not given) gave an RP-LC retention time of 646 s.

With `CCc1nnc([C@@H]2CC(F)(F)CN2C(=O)CCn2cccn2)o1`, the RP-LC retention time stood at 639 s. Next, `O=C(C1=CN(c2ccc(Cl)cc2)c2cc(F)ccc2S1(=O)=O)N1CCOCC1`: 830 s. With `CCOc1ccc(C2C3=C(CCCC3=O)Nc3c2c(=O)n(C)c(=O)n3C)cc1OC` (stereo not given) the figure was 806 s; with `CCOc1ccccc1OCc1nn2c(COc3ccc(F)cc3)nnc2s1`, 1000 s; with `O=C(Cc1ccc(Cl)cc1)NCC(=O)N1CCCc2ccccc21`, 862 s. With `CCOc1ccccc1NC(=O)NCCn1c(C(F)(F)F)nc2cccnc21` the figure was 799 s; with `CNC(=O)CCc1nc2ccccc2n(CC(=O)NCc2ccc(F)cc2)c1=O`, 666 s. As for `O=C(CCC1CCN(c2cc(NC3CC3)ncn2)CC1)N1CCN(c2ccccn2)CC1`, the RP-LC retention time amounted to 536 s. In turn, `CC(C)c1cc(=O)n(CC(=O)Nc2nc3c(s2)CCCC3)cn1` returned an RP-LC retention time of 692 s. Next, `Cc1ccc2c(c1)C(O)(CC(=O)c1ccc(NC(=O)C3CCCCC3)cc1)C(=O)N2` (stereo not given): 766 s. With `COc1cccc(OCC(O)CN2CCN(c3ccc(F)cc3)CC2)c1` (stereo not given) the figure was 687 s; with `O=C(CCn1c(N2CCCC2)nc2ccsc2c1=O)N1CCN(c2ccccn2)CC1`, 609 s; with `O=C1CCCN1CCCN1C(=O)[C@H]2CN(Cc3cccc(OC(F)(F)F)c3)C[C@H]2C1=O`, 678 s. `CCOCCCNC(=O)N1CCC2(CC1)Nc1cc(F)ccc1-n1cccc12` displayed an RP-LC retention time of 858 s. Next, `Cc1ccc(C(=O)N2CCCC2c2nc(-c3cccc(Cl)c3)no2)cc1C` (stereo not given): 1200 s; `CN1C2CC(OC(=O)[C@H](CO)c3ccccc3)CC1C1OC12` (stereo not given in full): 581 s.

`COc1ccc(-c2nc3cnccn3c2Nc2cccc(Cl)c2C)cc1` returned an RP-LC retention time of 965 s. Next, `O=C(c1cccc(Cl)c1)N1N=C(c2ccco2)CC1c1ccco1` (stereo not given): 1020 s; `Cc1nc(CC(=O)Nc2c(F)cccc2F)sc1C(=O)NC1CC1`: 660 s; `COc1ccc(NC(=O)CN2CCc3[nH]c4c(C)c(Cl)ccc4c(=O)c3C2)cc1Cl`: 762 s.

`O=C(CSc1ccc(N2CCCC(C(=O)NC3CC3)C2)nn1)Nc1ccc2c(c1)OCO2` (stereo not given) yielded an RP-LC retention time of 612 s. With `Cc1cc(C)cc(C(=O)N2CCC3(CC2)NC(=O)c2cc(Cl)ccc2N3C)c1` the figure was 850 s; with `CCOC(=O)c1ccc(Nc2c(-c3cccc(Cl)c3)nc3cnccn23)cc1`, 978 s. With `CC(C)Oc1ccc(-c2noc(Cn3ncn4nc(-c5ccc(F)cc5)cc4c3=O)n2)cc1` the figure was 1210 s; with `CCOc1ccc(-c2noc(Cn3nc(-c4ccccc4)ccc3=O)n2)cc1`, 1070 s; with `COc1ccc(N2CC(c3noc(-c4ccc(OC)cc4C)n3)CC2=O)cc1` (stereo not given), 992 s. Next, `COCC(=O)NC(Cc1ccccc1)c1nnc(N2CCSCC2)o1` (stereo not given): 721 s; `COc1ccc(S(=O)(=O)N2CCC(c3cnn(-c4ccc(C)cc4)c3)CC2)cc1`: 1110 s; `CCCNC(=O)N1CCN(Cc2nc3cccnc3n2-c2ccccc2)CC1`: 597 s. As to `COc1ccc2c(c1)C1(CCN(S(=O)(=O)c3ccc4c(c3)oc(=O)n4C)C1)C(=O)N2C` (stereo not given), the RP-LC retention time is 818 s. Next, `Cn1nc(-c2ccccc2)nc1C1CN(C(=O)Nc2ccccc2C(F)(F)F)C1`: 807 s; `Nc1nc(CN2CCN(c3ccccn3)CC2)nc(Nc2cccc(Cl)c2)n1`: 788 s; `CCC(C)NC(=O)N1CC(Oc2cccc(-c3nc(C)no3)c2)C1` (stereo not given): 801 s. Next, `COc1cccc(-c2noc(C3CCCN3C(=O)Nc3ccc(OC)cc3OC)n2)c1` (stereo not given): 941 s.

As to `Cc1cnc(C2CC2)n1CCNC(=O)C1CC=CC1`, the RP-LC retention time came out at 562 s. Next, `c1cncc(CN2CCCC(OCc3nc(-c4ccncc4)no3)C2)c1` (stereo not given): 557 s. `O=C(NC1CC1)c1nc(C(=O)N2CCN(c3ccc(F)cc3)CC2)cs1` showed an RP-LC retention time of 788 s. Next, `CCc1nc(-c2ccc(-c3noc(COc4ccccc4)n3)cc2)cs1`: 1290 s; `COc1ccc(CNC(=O)CN2CCN(Cc3ccc(C)cc3)C(=O)C2=O)cc1`: 734 s; `COCc1nc(C2CCN(C(=O)C3CC3)C2)no1` (stereo not given): 626 s.

As for `CCN1CCN(c2c(C(=O)c3ccc(C)c(C)c3)cnc3cc(OC)c(OC)cc23)CC1`, the RP-LC retention time came to 579 s.

The compound `Cc1cc(C)c(C)c(S(=O)(=O)N(C)C)c1C` gave an RP-LC retention time of 939 s. `O=C(Cn1cnc2c(sc3nc(-c4ccccc4)ccc32)c1=O)NCc1cccs1` yielded an RP-LC retention time of 919 s. With `O=C(NCc1ccccc1)c1ccc(-c2cncnc2)nc1` the figure was 675 s; with `Cc1cccc(NS(=O)(=O)c2cc3n(c2)CCN(C(C)C)C3=O)c1C`, 816 s; with `Cc1noc(C)c1-c1ccc(S(=O)(=O)Nc2ccc(S(N)(=O)=O)cc2)cc1`, 756 s. Next, `Cc1ccnc(Nc2nc(-c3ccc(C)c(C)c3)cs2)c1`: 902 s.
